This note sets out measurements from patent publication US4462941A, “Dynorphin amide analogs” (The Regents of the University of California, priority 1982, dated 1984).

Where no end group is shown, it is not given here.

Series [1] relates to morphine tolerant animals. As to the kind of experiment: Tail-flick analgesia, morphine s.c. with or without peptide i.c.v., morphine tolerant animals. Format: in vivo. The following applies: tolerant mice. As to the method: (§1) Male simonesen ICR mice (Gilroy, CA) weighing between 20-25 g were housed for at least one day prior to experimentation, and used within 5 days. Each mouse was used only once.
(§2) Analgesia was measured by the tail-flick method of D'Amour and Smith, J. Pharmac. Exp. Ther., 72, pp. 74-79 (1941), incorporated herein by reference, as modified by Tulunay and Takemori, J. Pharmac. Exp. Ther., 190, pp. 395-400 (1974), incorporated herein by reference. […] Nonresponding animals were removed from the heat stimulus when reaction times exceeded 10 sec. to avoid the tail damage.
(§3) Drugs were injected 30 min. prior to testing, unless otherwise indicated.
The animals were separated into two groups. […] Exp. Ther., 167, pp. 1-8 (1969), incorporated herein by reference.
(§4) The ED50 values, their 95% confidence limits and significance of the potency ratio between two ED50 values were determined by the method of Litchfield and Wilcoxon, J. Pharmac. Exp. Ther., 96: 99-113 (1949), incorporated herein by reference.

For a further series, the system named is mouse vas deferens. The following applies: read-out: IC50 inhibiting the twitch of the mouse vas deferens.
Another series has as its system mice. Put plainly: Analgesic activity of the peptide by itself (mouse tail-flick). Here is the method:
as §2, §3

For series [2] the following is noted: compared with dynorphin(1-13).
Series [3] has as its system morphine tolerant animals. Put plainly: Tail-flick analgesia, β-endorphin i.c.v. with or without dynorphin(1-13) i.c.v., morphine tolerant animals. In kind it is in vivo. The note with it: tolerant mice.
Text: as §1
The animals were separated into two groups. The one group was morphine tolerant (e.g., addicted); the other group was naive (e.g., not addicted). […] Exp. Ther., 167, pp. 1-8 (1969), incorporated herein by reference.
as §4

Take `CN1CC[C@]23c4c5ccc(O)c4O[C@H]2[C@@H](O)C=C[C@H]3[C@H]1C5.O=S(=O)(O)O` [Morphine, morphine sulfate]: the entries for the “Analgesia (%)” value in series [1] (morphine 60 mg/kg s.c. alone) and in series [1] (morphine 80 mg/kg s.c. alone) were 40% and 90%, respectively.

In general, IC50 refers to the concentration needed to halve the response being measured. Take `CC[C@H](C)[C@H](NC(=O)[C@H](CCCNC(=N)N)NC(=O)[C@H](CCCNC(=N)N)NC(=O)[C@H](CC(C)C)NC(=O)[C@H](Cc1ccccc1)NC(=O)CNC(=O)CNC(=O)[C@@H](N)Cc1ccc(O)cc1)C(=O)N[C@@H](CCCNC(=N)N)C(=O)N1CCC[C@H]1C(=O)N[C@@H](CCCCN)C(=O)N[C@@H](CC(C)C)C(=O)N[C@@H](CCCCN)C(=O)O` [dynorphin(1-13)]: the IC50 in the series on mouse vas deferens came out at 3.9 nM.

For “YGGFLRRIRP-NH2 [dynorphin(1-10) amide, Dynorphin(1-10)-NH2]”, the IC50 in the series on mouse vas deferens was determined as 0.24 nM. The “behavior at huge doses” value in the series with mice is “tends to produce convulsions”. Moreover, the “rate of metabolism by the host” value in series [2] is listed as “less quickly metabolized”.

β-endorphin: the “Analgesia (%)” value in series [3] (β-endorphin 1 μg/mouse i.c.v. alone) is recorded as 10%; in series [3] (β-endorphin 2 μg/mouse i.c.v. alone) it was 40%; in series [3] (β-endorphin 6 μg/mouse i.c.v. alone), 100%. Besides, in series [3] (β-endorphin i.c.v. alone), the “ED50 of β-endorphin” value was “about 2.25 μg/mouse”.
